Calls of active or inactive are those of the source. No cut-off for these calls is given here.
Tests used:
DNA polymerase beta [1] = biological target: T1, DNA polymerase beta (Homo sapiens, UniProt P06746); experiment: Inhibition of human DNA polymerase beta
DNA polymerase beta [2] = biological target: T1, DNA polymerase beta; experiment: Inhibition of human DNA polymerase beta assessed as inhibition of dCTP incorporation by gap filling assay

Row | SMILES | Ki (DNA polymerase beta [1]) [nM] | Activity (DNA polymerase beta [2])
1 | Nc1ncnc2c1ncn2[C@H]1C[C@H](O)[C@@H](COP(=O)(O)CP(=O)(O)OP(=O)(O)O)O1 | 5000 | 
2 | Nc1ccn([C@H]2C[C@H](O)[C@@H](COP(=O)(O)CP(=O)(O)OP(=O)(O)O)O2)c(=O)n1 | 900 | Active
3 | Nc1nc2c(ncn2[C@H]2C[C@H](O)[C@@H](COP(=O)(O)CP(=O)(O)OP(=O)(O)O)O2)c(=O)[nH]1 | 1000 | 
4 | Cc1cn([C@H]2C[C@H](O)[C@@H](COP(=O)(O)CP(=O)(O)OP(=O)(O)O)O2)c(=O)[nH]c1=O | 600 | 

Source: ChEMBL document CHEMBL1140151, “Alpha,beta-methylene-2'-deoxynucleoside 5'-triphosphates as noncleavable substrates for DNA polymerases: isolation, characterization, and stability studies of novel 2'-deoxycyclonucleosides, 3,5'-cyclo-dG, and 2,5'-cyclo-dT” (J Med Chem, 2008)
